Earlier results as cited in patent US20070104792A1, “Nanoparticulate tadalafil formulations” (Elan Pharma International, Limited, priority 2005, published 2007).

Conditions: conventional crystalline solid

Solubility in ethanol (ethanol): very slightly soluble in ethanol
Solubility in water (water): practically insoluble in water
SMILES: CN1CC(=O)N2[C@H](c3ccc4c(c3)OCO4)c3[nH]c4ccccc4c3C[C@@H]2C1=O [tadalafil, pyrazino[1′,2′:1,6]pyrido[3,4-b]indole-1,4-dione, 6-(1,3-benzodioxol-5-yl)-2,3,6,7,12,12a-hexahydro-2-methyl-, (6R,12aR)]
